According to ChEMBL document CHEMBL4138093, “Discovery and characterization of selective human sphingomyelin synthase 2 inhibitors” (Eur J Med Chem, 2017):

What was measured:
[1] = molecular target: T1, Phosphatidylcholine:ceramide cholinephosphotransferase 1 (Homo sapiens, UniProt Q86VZ5); test: Inhibition of full length C-terminal FLAG tagged human SMS1 expressed in HEK293 cell membranes using DMPC-d72 and C17-ceramide as substrate preincubated for 60 mins followed by substrate addition measured after 30 mins by RapidFire/mass spectrometry assay
T1 sequence (Q86VZ5 whole entry): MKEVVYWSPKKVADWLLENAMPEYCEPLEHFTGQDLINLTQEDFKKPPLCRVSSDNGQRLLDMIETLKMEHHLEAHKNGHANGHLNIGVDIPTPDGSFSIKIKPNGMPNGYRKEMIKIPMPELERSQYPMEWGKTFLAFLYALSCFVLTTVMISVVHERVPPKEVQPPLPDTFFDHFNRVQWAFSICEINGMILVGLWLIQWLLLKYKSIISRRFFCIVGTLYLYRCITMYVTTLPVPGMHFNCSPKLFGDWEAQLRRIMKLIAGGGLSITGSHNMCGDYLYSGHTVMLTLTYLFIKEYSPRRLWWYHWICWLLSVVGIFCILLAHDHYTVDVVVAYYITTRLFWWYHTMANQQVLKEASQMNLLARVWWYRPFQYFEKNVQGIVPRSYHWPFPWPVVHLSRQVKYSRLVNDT

[2] = molecular target: T2, Phosphatidylcholine:ceramide cholinephosphotransferase 2 (Homo sapiens, UniProt Q8NHU3); test: Inhibition of full length C-terminal FLAG tagged human SMS2 expressed in HEK293 cell membranes using DMPC-d72 and C17-ceramide as substrate preincubated for 60 mins followed by substrate addition measured after 30 mins by RapidFire/mass spectrometry assay
T2 sequence (Q8NHU3 whole entry): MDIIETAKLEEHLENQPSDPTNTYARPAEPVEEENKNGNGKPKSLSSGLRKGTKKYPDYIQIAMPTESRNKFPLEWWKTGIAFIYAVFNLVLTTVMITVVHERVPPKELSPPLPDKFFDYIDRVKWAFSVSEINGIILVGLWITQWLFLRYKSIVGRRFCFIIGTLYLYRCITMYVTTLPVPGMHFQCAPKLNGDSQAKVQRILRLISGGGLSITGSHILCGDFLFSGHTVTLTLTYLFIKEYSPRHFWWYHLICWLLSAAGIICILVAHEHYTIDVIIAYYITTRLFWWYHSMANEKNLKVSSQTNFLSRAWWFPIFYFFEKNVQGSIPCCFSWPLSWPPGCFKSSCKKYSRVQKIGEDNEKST

Homo sapiens = species: Homo sapiens; test: Selectivity index, ratio of IC50 for full length C-terminal FLAG tagged human SMS1 to IC50 for full length C-terminal FLAG tagged human SMS2
HEK-293T = test: Cytotoxicity against HEK293T cells by CellTiter-Glo luminescent cell viability assay relative to control; type: cell-based; conditions: human
[3] = molecular target: T1, Phosphatidylcholine:ceramide cholinephosphotransferase 1; test: Inhibition of human SMS1

`S=C(S)OC1CC2CC1C1CCCC21` (stereo not given) was tested, and the IC50 [1] was 86 µM, the IC50 [2] was 56 µM and the Ratio IC50 (Homo sapiens) was 1.5.

With `CN(Cc1cc(C(F)(F)F)cc(C(F)(F)F)c1)C(=O)c1c(N2CCCC2)c2ccccc2n(C)c1=O` the Activity (HEK-293T) was > 50% and the IC50 [3] was > 100 µM.
